The values below come from PMC8422859, “A Novel Oral Arginase 1/2 Inhibitor Enhances the Antitumor Effect of PD-1 Inhibition in Murine Experimental Gliomas by Altering the Immunosuppressive Environment” (Frontiers in Oncology, 2021).

One may read the IC50 as the concentration at which inhibition is half-maximal.

The target in one series is T1, recombinant human ARG2 (Homo sapiens, UniProt P78540).
T1 construct: made in house; host or cells: E. coli
T1 sequence (P78540 23-354): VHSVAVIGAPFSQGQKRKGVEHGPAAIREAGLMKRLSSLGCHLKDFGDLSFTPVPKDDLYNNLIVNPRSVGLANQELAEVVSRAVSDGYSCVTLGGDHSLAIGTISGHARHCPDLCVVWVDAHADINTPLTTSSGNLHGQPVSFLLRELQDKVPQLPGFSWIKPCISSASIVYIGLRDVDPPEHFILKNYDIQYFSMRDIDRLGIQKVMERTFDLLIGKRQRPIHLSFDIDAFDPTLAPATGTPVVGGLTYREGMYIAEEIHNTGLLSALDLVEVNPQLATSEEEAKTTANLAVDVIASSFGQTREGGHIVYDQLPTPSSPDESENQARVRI
The experiment in a line: Recombinant arginase activity assay, hARG2. In kind it is biochemical. Particulars: 1 h at 37°C, pH 7.4, 10 mM L-arginine, urea detection; read-out: Inhibition of recombinant hARG2: IC50. The protocol:
The inhibitory activity towards hARG1 and hARG2 enzymes was assessed using recombinant enzymes biosynthesized using a prokaryotic expression system (E. coli) and purified by fast protein liquid chromatography (FPLC). Briefly, recombinant enzymes were incubated with the tested compounds for 1 h at 37°C in the reaction buffer (100 mM sodium phosphate buffer, 130 mM NaCl, 1 mg/mL BSA, pH 7.4) containing substrate (10 mM L-arginine hydrochloride) and cofactor (200 µM MnCl2). The assay is based on the detection of urea, which is generated during the conversion of L-arginine into L-ornithine catalyzed by arginases. To visualize the product, we adding a mixture of reagent A (4 mM oPA, 50 mM boric acid, 1 M sulfuric acid, 0.03% Brij-35) and reagent B (4 mM NED, 50 mM boric acid, 1 M sulfuric acid, 0.03% Brij-35) in equal proportions. The absorbance was measured at 515 nm. The urea production in the absence of any tested compound was considered as maximal enzyme activity. The absorbance in the absence of arginase (background) was considered as zero activity. Two reference compounds OAT-81 (ABH, no. 222638-65-5) and OAT-90 (2-amino-6-borono-2-(2-(3-(2,4-dichlorophenyl)propyloamino)ethyl) hexanoic acid, and two novel inhibitors OAT-1617 and OAT-1746 (the last three synthesized at OncoArendi Therapeutics) were tested. Normalized values were analyzed using GraphPad Prism 7.0 software and the IC50 values were determined.

Series [1] relates to tumor-infiltrating immune cells in GL261 gliomas. The experiment in a line: Immune cells in GL261 gliomas (immunohistochemistry, flow cytometry). It is filed as in vivo, mouse. The protocol:
The animals were sacrificed on the day 21 after GL261 tdTomato^+luc^+ cell implantation and perfused with 4% paraformaldehyde in PBS. Brains were removed, post-fixed for 48 h in the same fixative solution and placed in 30% sucrose in PBS at 4°C until the tissue sunk to the bottom of the flask. Tissue was frozen in Tissue Freezing Medium (Jung; Nussloch, Germany) and cut in 12 µm coronal sections using a cryostat. The slides were dried at room temperature for 2 h after being transferred from the -80°C storage. Cryosections were blocked in PBS containing 10% donkey serum and 0.1% Triton X-100 for 2 h and incubated overnight at 4°C with rabbit anti-Iba-1 and goat anti-Arg1 or with rabbit anti-CD8 antibodies. Next, sections were washed in PBS and incubated with corresponding secondary antibodies for 2 h at room temperature. All antibodies were diluted in 0.1% Triton X-100/PBS solution containing 3% donkey serum. Nuclei were counterstained with DAPI (1 µg/mL). Images were obtained using the Olympus microscope (Fluoview, FV10i). For reagent specifications, catalogue numbers, and concentrations, see the Supplementary Table 1. To quantify the tumor size, sections were stained with toluidine blue, and images were acquired using a Leica DM4000B microscope (Leica Microsystems, Wetzlar, Germany). Tumor areas were measured using ImageJ software (NIH, Bethesda, MD, USA) on every sixth brain slice, and tumor volumes were calculated as previously described ([26]).
On day 28 after GL261 tdTomato^+luc^+ cell implantation mice were perfused transcardially with cold phosphate-buffered saline (PBS) to clear away blood cells from the brain. […] Next, cells were collected, washed with PBS and counted using NucleoCounter (Chemometec, Denmark). […]
All antibodies were titrated prior to staining to establish the amount yielding the best stain index. Data were acquired using a BD LSR Fortessa Analyzer cytometer and analyzed with FlowJo software (v. 10.5.3, FlowJo LLC, BD). Gates were set based on FMO (fluorescence minus one) controls and back-gating analysis. […]

For another series, the system named is ARG1/2. Set-up: method as in PMID 31278254. The conditions noted are these: cited from earlier work.
The subject of another series is human and murine T cells. Set-up: method as in PMID 31278254. Particulars: cited from earlier work.
The test system of the next series is non-CNS tumor models. Particulars: cited from earlier work.

As to `CN(C)C[C@@H]1CC[C@@H](CCB(O)O)C[C@]1(N)C(=O)O` [OAT-1746], the concentration for half-maximal inhibition (IC50) at recombinant human ARG2 is 49 nM. Moreover, the “percentage of microglia (CD11b+CD45low) and blood-derived macrophages (CD11b+CD45high)” value in series [1] (flow cytometry, day 28) is on record as “did not change”. For the same compound, in series [1] (immunohistochemistry, day 21), the “accumulation of CD8+ cells” value is “did not affect”; the “accumulation of Iba1+ and Arg1+ cells in gliomas” value is recorded as “did not change”. For the same compound, the “inhibition of ARG1/2” value with ARG1/2 was “low nanomolar concentrations”. The “ARG1-inhibited proliferation of human and murine T cells” value in the series on human and murine T cells is given as “reversed”. Moreover, in the series with non-CNS tumor models, the “antitumor efficacy in non-CNS tumor models” value is on record as “significant antitumor efficacy”. For the same compound, the “toxicity in experimental animals” value in the series on non-CNS tumor models (multiple oral dosing, mono- or combinatorial therapies, other tumor models) is given as “no toxicity”.
